Assays:
E. coli JM109 [pSB311] = assay: dual culture bioluminescence assay, reading before octanal substrate addition; format: cell-based; details: E. coli/S. aureus co-culture, 5 hours at 37° C., FIG. 1
Experimental: E. coli JM109 [pSB311] has a plasmid that contains the entire lux gene cassette (luxCDABE) from Photorhabdus luminescens. In this organism bioluminescence initiation is independent on the addition of aldehyde substrate.
E. coli JM109 was grown overnight at 37° C. in Brain Heart Infusion (BHI) broth to give approximately 1×10^9 CFU/ml.
(§1) S. aureus RN4220 [PKF1] was grown overnight at 37° C. in Brain Heart Infusion (BHI) broth containing 10 ug/ml chloramphenicol to give approximately 1×10^9 CFU/ml. The overnight cultures were diluted to give 1×10^6 CFU/ml for E. coli and 1×10^7 CFU/ml for S. aureus and 25 μl of each organism was added to each well.
(§2) Test compounds were serially diluted in BHI and 50 μl was added to each well of a 96 well microtitre plate.
(§3) The plate was incubated for 5 hours at 37° C. and bioluminescence from compound treated cells was compared with non-treated cells using a luminometer (Wallac LB96B) to give bioluminescence output for E. coli (no substrate addition).

S. aureus RN4220 [pKF1] = assay: dual culture bioluminescence assay, reading after octanal addition minus initial reading; format: cell-based; details: E. coli/S. aureus co-culture, 5 hours at 37° C., RLU after octanal minus initial reading, FIG. 3
Experimental: S. aureus RN4220 [pKF1] has a plasmid that contains only luxAB genes so bioluminescence is dependent on the addition of aldehyde substrate. Chloramphenicol resistance is used as a selective marker for plasmid maintenance.
as §1, §2, §3
To monitor the effect of the antibiotics on S. aureus bioluminescence 50 μl of 0.01% (v/v) octanal substrate was added to each well and bioluminescence was measured immediately after substrate addition to each individual well (Total RLU's for both E. coli and S. aureus). To obtained RLU's for S. aureus the initial RLU reading was subtracted from the reading taken immediately following substrate addition.

Row | SMILES | concentrations required to inhibit bioluminescence (E. coli JM109 [pSB311]; no substrate addition) | activity against S. aureus (in words) (S. aureus RN4220 [pKF1]) | potency against E. coli (comparison in words) (E. coli JM109 [pSB311]; compared with mupirocin)
1 | C/C(=C\C(=O)OCCCCCCCCC(=O)O)C[C@@H]1OC[C@H](C[C@@H]2O[C@H]2[C@@H](C)[C@H](C)O)[C@@H](O)[C@H]1O [mupirocin] | greater than 64 μl/ml | potent activity | –
2 | CC1(C)S[C@@H]2[C@H](NC(=O)[C@H](N)c3ccc(O)cc3)C(=O)N2[C@H]1C(=O)O [Amoxicillin] | – | potent activity | more potent

From patent US20020172974A1, “Method of screening for antimicrobial compounds” (priority 1997, published 2002)
